Test results published in ChEMBL document CHEMBL1201862, “PubChem BioAssay data set” (2004).
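The compound was tested at five concentrations on cells cultured in 96-well plates, with a 48-hour exposure period. GI50 marks 50% less growth.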 The source made the active and inactive calls. Rule as the data show it: active = GI50 up to about 1.1 µM and inactive = higher. Where a SMILES comes first, the peptide text is derived from it.

Experiments:
Assay in all cases: DTP human tumour cell line panel, 48 h
SK-MEL-2 = system: SK-MEL-2
M14 = system: M14
NCI/ADR-RES = system: NCI/ADR-RES
SK-OV-3 = system: SK-OV-3
KM12 = system: KM12
UO-31 = system: UO-31
MDA-N = system: MDA-N
SW-620 = system: SW-620
NCI-H522 = system: NCI-H522
SF-268 = system: SF-268
ACHN = system: ACHN
UACC-257 = system: UACC-257
A498 = system: A498
HOP-62 = system: HOP-62
SK-MEL-28 = system: SK-MEL-28
A549 = system: A549
EKVX = system: EKVX
Hs-578T = system: Hs-578T
NCI-H460 = system: NCI-H460
MCF7 = system: MCF7

Measured: GI50

CC(=O)C(=N\Nc1ccc(Cl)cc1)/C(C)=N/c1ccc(C)cc1
inactive: SK-MEL-2 18.4 µM | M14 22.1 µM | NCI/ADR-RES 25.6 µM | SK-OV-3 46 µM | KM12 27.1 µM | UO-31 30.1 µM | MDA-N 31.9 µM | SW-620 41.6 µM | NCI-H522 19.7 µM | SF-268 35.6 µM | ACHN 21.9 µM | UACC-257 53.2 µM | A498 11.9 µM | HOP-62 > 10 µM | SK-MEL-28 48.8 µM | A549 29.3 µM | EKVX 21.3 µM | Hs-578T 44.4 µM

COC1=CC2(CC(OC)=C1OC)OC21COc2ccccc2C1=O (stereo not drawn)
inactive: SK-MEL-2 40.2 µM | NCI-H460 42.9 µM | M14 87.5 µM | NCI/ADR-RES 85.7 µM | SK-OV-3 > 100 µM | KM12 > 100 µM | UO-31 5.16 µM | SW-620 > 100 µM | MCF7 55.7 µM | NCI-H522 75 µM | SF-268 > 100 µM | ACHN 45.1 µM | UACC-257 44.4 µM | A498 > 100 µM | HOP-62 > 100 µM | SK-MEL-28 > 100 µM | A549 56.4 µM | EKVX 39.4 µM | Hs-578T > 100 µM

COc1ccc(OC)c2c(C)ccnc12
inactive: SK-MEL-2 22.8 µM | NCI-H460 21.7 µM | M14 10.6 µM | NCI/ADR-RES 12.9 µM | SK-OV-3 > 86.1 µM | KM12 37.2 µM | UO-31 6.78 µM | MDA-N 26.3 µM | SW-620 10.5 µM | MCF7 9.04 µM | NCI-H522 4.1 µM | SF-268 9.89 µM | ACHN 18.3 µM | UACC-257 33.7 µM | A498 56.8 µM | HOP-62 9.75 µM | SK-MEL-28 36.6 µM | A549 21.4 µM | EKVX 14.3 µM

NC(=O)C1CCCN1C(=O)C(N)Cc1ccccc1 (stereo not drawn) (H-Phe-Pro-NH2; configuration not given here)
inactive: NCI-H460 > 100 µM | M14 > 100 µM | NCI/ADR-RES > 100 µM | UO-31 > 100 µM | MDA-N > 100 µM | SW-620 > 100 µM | MCF7 > 100 µM | NCI-H522 > 100 µM | SF-268 > 100 µM | ACHN > 100 µM | UACC-257 > 10 µM | A498 76.7 µM | HOP-62 > 100 µM | SK-MEL-28 > 100 µM | A549 > 100 µM | EKVX > 100 µM

CC1(C)CCCCCCC2CC2CCCCCC(C)(C)C1=O (stereo not drawn)
inactive: SK-MEL-2 40.6 µM | NCI-H460 66.2 µM | M14 > 100 µM | NCI/ADR-RES 99.3 µM | SK-OV-3 > 100 µM | KM12 92.5 µM | UO-31 > 100 µM | MDA-N 88.3 µM | SW-620 > 100 µM | NCI-H522 51.9 µM | SF-268 > 100 µM | ACHN > 100 µM | UACC-257 37.8 µM | A498 > 100 µM | HOP-62 > 100 µM | SK-MEL-28 > 100 µM | A549 45.7 µM | EKVX 41.9 µM | Hs-578T > 100 µM

CC1(C)COC(c2cccc(C(=O)c3ccccc3)c2)=N1
inactive: SK-MEL-2 > 100 µM | NCI-H460 59.4 µM | NCI/ADR-RES 31.6 µM | SK-OV-3 > 100 µM | KM12 44.6 µM | UO-31 29.1 µM | MDA-N 41 µM | SW-620 > 100 µM | MCF7 47.8 µM | NCI-H522 16.8 µM | SF-268 90.4 µM | ACHN 64.4 µM | UACC-257 26.2 µM | HOP-62 > 100 µM | SK-MEL-28 42.8 µM | A549 55.2 µM | EKVX 34.9 µM

COc1ccc(C2CC(=O)CC(c3ccc(OC)cc3)C23C(=O)NC(=S)NC3=O)cc1 (stereo not drawn)
inactive: SK-MEL-2 > 100 µM | NCI-H460 > 100 µM | M14 > 100 µM | NCI/ADR-RES > 100 µM | KM12 > 100 µM | UO-31 > 100 µM | MDA-N > 100 µM | SW-620 > 100 µM | MCF7 > 100 µM | NCI-H522 > 100 µM | SF-268 > 100 µM | ACHN > 100 µM | UACC-257 > 100 µM | HOP-62 > 100 µM | SK-MEL-28 > 100 µM | EKVX > 100 µM

O=C1COc2cccnc2N1CCCCO
inactive: SK-MEL-2 > 100 µM | NCI-H460 > 100 µM | SK-OV-3 > 100 µM | KM12 > 100 µM | UO-31 > 100 µM | MDA-N > 100 µM | SW-620 > 100 µM | MCF7 > 100 µM | NCI-H522 > 100 µM | ACHN > 100 µM | UACC-257 > 100 µM | A498 > 100 µM | HOP-62 > 100 µM | SK-MEL-28 > 100 µM | A549 > 100 µM | EKVX > 100 µM | Hs-578T > 100 µM

C#CCOCCCC(=O)O
inactive: SK-MEL-2 > 100 µM | NCI-H460 > 100 µM | M14 > 100 µM | NCI/ADR-RES > 100 µM | SK-OV-3 > 100 µM | MDA-N > 100 µM | SW-620 > 100 µM | MCF7 > 100 µM | ACHN > 100 µM | UACC-257 > 100 µM | A498 > 100 µM | HOP-62 > 100 µM | SK-MEL-28 > 100 µM | A549 > 100 µM | EKVX > 100 µM

CCOC(=O)C(=Cc1ccc(Oc2ccccc2)cc1)C(=O)OCC
inactive: SK-MEL-2 1.85 µM | NCI-H460 18.2 µM | M14 3.82 µM | SK-OV-3 7.05 µM | KM12 5.98 µM | UO-31 4.35 µM | MDA-N 4.41 µM | SW-620 2.22 µM | MCF7 4.09 µM | NCI-H522 4.22 µM | SF-268 3.32 µM | ACHN 6.3 µM | UACC-257 2.42 µM | A498 15.3 µM | HOP-62 3.28 µM | SK-MEL-28 3.56 µM | A549 8.45 µM | EKVX 15.4 µM

COc1ccccc1N1C(=O)CSC1c1cccc(Oc2ccccc2)c1 (stereo not drawn)
inactive: SK-MEL-2 15.8 µM | NCI-H460 18.2 µM | M14 17.7 µM | NCI/ADR-RES 19.7 µM | SK-OV-3 34.8 µM | KM12 20.1 µM | UO-31 17.8 µM | SW-620 21.9 µM | MCF7 18.2 µM | NCI-H522 16.2 µM | SF-268 17.5 µM | ACHN 20.9 µM | UACC-257 16.7 µM | A498 20.7 µM | HOP-62 20.1 µM | SK-MEL-28 17.8 µM | A549 21.8 µM | EKVX 17.2 µM | Hs-578T 20.9 µM
